Columns and labels:
Test in all cases: biochemical
Design in all cases: DiscoverX KinomeScan competition binding assay across human kinases; per cent of control at 10 and 100 uM
Conditions in all cases: competition binding, % of control; read-out: Percent Control (100 uM Levosimendan)
FES = FES (Homo sapiens, UniProt P07332)
How it was run: (§1)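 Binding is expressed as %control, normalised between positive and negative control signals. The compound (levosimendan) was tested at 10 μM and 100 μM in the DiscoverX KinomeScan competition binding format against human kinases.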

LRRK2 = LRRK2 (Homo sapiens, UniProt Q5S007)
Chain of LRRK2 (Q5S007 whole entry): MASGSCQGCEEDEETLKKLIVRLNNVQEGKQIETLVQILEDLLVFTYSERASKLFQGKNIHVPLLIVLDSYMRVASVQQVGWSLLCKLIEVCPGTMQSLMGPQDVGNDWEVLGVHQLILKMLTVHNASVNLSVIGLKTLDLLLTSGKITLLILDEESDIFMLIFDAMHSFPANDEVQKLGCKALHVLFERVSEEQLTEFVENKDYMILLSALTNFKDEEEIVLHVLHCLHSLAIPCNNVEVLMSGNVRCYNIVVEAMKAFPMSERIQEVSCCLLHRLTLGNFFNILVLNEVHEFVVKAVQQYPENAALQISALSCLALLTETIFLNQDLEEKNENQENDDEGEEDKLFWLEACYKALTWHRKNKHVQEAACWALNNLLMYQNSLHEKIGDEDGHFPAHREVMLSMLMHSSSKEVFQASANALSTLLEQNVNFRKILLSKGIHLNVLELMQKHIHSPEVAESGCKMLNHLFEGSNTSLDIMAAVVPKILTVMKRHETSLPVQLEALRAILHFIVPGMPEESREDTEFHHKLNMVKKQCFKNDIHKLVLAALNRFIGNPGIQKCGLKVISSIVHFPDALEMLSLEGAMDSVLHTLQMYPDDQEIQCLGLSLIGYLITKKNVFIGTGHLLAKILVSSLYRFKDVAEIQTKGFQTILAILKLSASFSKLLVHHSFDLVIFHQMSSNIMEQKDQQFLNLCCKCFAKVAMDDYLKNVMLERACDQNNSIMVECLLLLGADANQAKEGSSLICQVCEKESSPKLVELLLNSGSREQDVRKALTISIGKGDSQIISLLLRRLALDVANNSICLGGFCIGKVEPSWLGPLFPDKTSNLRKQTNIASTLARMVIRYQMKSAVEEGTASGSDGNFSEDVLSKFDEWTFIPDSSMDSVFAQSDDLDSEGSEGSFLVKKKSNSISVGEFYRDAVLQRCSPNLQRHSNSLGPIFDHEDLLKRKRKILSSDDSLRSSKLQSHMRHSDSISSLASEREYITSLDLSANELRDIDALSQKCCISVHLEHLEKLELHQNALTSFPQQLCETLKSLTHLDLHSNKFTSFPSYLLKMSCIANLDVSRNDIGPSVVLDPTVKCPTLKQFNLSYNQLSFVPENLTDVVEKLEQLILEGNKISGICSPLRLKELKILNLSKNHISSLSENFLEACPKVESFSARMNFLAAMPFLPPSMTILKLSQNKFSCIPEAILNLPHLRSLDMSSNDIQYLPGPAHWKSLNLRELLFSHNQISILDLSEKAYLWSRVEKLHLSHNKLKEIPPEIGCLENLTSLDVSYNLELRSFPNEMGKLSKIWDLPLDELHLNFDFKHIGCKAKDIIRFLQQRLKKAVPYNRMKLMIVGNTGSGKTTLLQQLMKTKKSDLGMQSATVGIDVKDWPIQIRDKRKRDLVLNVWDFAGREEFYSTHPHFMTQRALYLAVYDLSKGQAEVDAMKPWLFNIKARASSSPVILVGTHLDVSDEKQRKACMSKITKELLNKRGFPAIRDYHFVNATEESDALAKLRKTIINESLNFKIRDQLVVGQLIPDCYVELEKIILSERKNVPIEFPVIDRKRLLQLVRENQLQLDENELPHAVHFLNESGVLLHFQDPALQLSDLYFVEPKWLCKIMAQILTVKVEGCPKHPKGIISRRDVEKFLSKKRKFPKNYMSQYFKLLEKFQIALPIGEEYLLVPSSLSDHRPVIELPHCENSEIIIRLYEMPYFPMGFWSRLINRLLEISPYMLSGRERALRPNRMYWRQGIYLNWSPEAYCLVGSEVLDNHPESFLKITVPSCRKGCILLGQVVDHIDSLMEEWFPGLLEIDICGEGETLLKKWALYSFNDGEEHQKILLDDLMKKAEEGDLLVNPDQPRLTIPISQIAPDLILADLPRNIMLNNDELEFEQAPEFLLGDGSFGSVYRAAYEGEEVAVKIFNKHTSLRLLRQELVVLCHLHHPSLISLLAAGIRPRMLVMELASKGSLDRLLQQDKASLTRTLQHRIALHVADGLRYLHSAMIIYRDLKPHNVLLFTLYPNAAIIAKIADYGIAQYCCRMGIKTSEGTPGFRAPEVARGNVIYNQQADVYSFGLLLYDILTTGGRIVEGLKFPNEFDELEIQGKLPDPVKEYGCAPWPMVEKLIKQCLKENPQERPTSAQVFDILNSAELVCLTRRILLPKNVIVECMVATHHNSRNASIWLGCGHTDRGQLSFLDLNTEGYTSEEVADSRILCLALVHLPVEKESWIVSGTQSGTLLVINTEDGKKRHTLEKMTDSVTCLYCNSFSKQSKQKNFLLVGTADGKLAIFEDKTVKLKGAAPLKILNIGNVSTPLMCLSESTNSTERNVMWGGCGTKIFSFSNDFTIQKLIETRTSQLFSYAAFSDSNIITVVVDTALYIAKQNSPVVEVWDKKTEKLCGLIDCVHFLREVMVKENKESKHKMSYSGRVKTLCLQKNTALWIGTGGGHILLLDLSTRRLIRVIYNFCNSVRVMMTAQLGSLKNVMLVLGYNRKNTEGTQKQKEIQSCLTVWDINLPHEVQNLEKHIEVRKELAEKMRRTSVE
How it was run: as §1

AKT2 = AKT2 (Homo sapiens, UniProt P31751)
How it was run: as §1

MYLK2 = MYLK2 (Homo sapiens, UniProt Q9H1R3)
Chain of MYLK2 (Q9H1R3 whole entry): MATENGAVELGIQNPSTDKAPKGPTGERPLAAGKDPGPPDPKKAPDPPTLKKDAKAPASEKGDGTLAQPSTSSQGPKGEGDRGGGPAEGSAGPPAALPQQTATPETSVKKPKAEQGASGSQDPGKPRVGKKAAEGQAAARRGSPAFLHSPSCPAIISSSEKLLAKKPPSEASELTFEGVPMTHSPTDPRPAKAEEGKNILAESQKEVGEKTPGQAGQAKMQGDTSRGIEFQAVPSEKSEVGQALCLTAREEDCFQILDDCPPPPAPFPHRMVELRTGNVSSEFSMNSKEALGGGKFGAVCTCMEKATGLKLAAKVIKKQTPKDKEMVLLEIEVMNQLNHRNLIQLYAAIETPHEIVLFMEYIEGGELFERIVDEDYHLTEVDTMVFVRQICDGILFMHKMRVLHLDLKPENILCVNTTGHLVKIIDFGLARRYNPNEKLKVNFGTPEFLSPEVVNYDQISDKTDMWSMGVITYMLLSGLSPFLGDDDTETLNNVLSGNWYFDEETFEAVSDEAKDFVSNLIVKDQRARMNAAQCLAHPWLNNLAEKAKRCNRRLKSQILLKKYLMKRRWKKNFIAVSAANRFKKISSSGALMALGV
How it was run: as §1

NDR2 = biological target: T1, NDR2 (Homo sapiens, UniProt Q9Y2H1)
T1 construct: gene STK38L
How it was run: as §1

CAMK2D = CAMK2D (Homo sapiens, UniProt Q13557)
How it was run: as §1

SNARK = biological target: T2, SNARK (Homo sapiens, UniProt Q9H093)
T2 construct: gene NUAK2
How it was run: as §1

WEE1 = WEE1 (Homo sapiens, UniProt P30291)
How it was run: as §1

TYRO3 = TYRO3 (Homo sapiens, UniProt Q06418)
How it was run: as §1

RET = RET (Homo sapiens, UniProt P07949)
How it was run: as §1

PYK2 = biological target: T3, PYK2 (Homo sapiens, UniProt Q14289)
T3 construct: gene PTK2B
T3 sequence (Q14289 whole entry): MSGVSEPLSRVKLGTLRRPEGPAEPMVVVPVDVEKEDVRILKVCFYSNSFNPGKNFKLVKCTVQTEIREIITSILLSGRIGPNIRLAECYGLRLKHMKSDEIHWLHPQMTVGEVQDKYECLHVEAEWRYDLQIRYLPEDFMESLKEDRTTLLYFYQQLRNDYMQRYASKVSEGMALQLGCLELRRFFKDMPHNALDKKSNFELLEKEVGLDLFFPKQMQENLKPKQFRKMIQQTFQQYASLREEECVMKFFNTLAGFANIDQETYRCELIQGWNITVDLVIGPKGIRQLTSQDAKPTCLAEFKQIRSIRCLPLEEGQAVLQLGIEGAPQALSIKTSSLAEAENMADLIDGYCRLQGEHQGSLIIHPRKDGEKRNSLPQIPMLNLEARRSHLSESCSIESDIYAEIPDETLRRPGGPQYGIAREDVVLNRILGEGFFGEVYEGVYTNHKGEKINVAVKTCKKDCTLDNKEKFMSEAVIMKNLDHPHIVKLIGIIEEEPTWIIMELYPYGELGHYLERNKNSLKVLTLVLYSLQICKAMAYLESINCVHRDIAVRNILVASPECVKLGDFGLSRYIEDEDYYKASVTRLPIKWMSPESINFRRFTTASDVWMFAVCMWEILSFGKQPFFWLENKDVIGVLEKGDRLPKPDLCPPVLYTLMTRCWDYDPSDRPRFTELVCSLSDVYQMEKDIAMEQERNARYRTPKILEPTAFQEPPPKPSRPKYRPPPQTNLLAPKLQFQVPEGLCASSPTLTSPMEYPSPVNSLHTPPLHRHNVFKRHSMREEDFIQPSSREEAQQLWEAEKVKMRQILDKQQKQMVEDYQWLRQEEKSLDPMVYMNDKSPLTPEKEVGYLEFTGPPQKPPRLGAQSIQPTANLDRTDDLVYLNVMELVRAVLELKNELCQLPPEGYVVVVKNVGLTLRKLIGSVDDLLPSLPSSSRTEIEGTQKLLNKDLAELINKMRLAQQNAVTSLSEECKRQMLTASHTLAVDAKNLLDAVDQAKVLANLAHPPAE
How it was run: as §1

MAP3K2 = MAP3K2 (Homo sapiens, UniProt Q9Y2U5)
How it was run: as §1

[1] = biological target: T4, RSK1(Kin.Dom.2-C-terminal) (Homo sapiens, UniProt Q15418)
T4 construct: gene RPS6KA1; Kin.Dom.2-C-terminal
How it was run: as §1

PRKR = biological target: T5, PRKR (Homo sapiens, UniProt P19525)
T5 construct: gene EIF2AK2
How it was run: as §1

HASPIN = HASPIN (Homo sapiens, UniProt Q8TF76)
Chain of HASPIN (Q8TF76 whole entry): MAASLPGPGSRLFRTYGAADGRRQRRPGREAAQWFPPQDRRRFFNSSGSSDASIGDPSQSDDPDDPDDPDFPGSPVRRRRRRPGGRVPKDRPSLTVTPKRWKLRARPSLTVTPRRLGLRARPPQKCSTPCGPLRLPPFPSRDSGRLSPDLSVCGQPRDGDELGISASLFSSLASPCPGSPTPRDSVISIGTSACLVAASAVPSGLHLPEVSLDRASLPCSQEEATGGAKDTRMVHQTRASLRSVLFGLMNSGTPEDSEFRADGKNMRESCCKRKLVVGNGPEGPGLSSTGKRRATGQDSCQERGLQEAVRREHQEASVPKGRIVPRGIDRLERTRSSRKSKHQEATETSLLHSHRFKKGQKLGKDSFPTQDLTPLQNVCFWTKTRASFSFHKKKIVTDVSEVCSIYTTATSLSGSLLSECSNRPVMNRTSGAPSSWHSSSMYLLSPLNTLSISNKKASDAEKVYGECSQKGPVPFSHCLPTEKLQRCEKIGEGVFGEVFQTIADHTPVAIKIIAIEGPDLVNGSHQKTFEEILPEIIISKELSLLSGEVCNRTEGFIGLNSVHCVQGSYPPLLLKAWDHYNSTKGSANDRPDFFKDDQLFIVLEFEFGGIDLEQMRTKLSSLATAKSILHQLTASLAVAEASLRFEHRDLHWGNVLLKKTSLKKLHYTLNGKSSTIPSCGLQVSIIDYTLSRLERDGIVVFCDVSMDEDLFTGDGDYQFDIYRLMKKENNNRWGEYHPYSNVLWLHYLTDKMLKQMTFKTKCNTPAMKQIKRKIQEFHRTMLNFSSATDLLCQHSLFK
How it was run: as §1

IKK-beta = biological target: T6, IKK-beta (Homo sapiens, UniProt O14920)
T6 construct: gene IKBKB
How it was run: as §1

CDC2L1 = biological target: T7, CDC2L1 (Homo sapiens, UniProt P21127)
T7 construct: gene CDK11B
How it was run: as §1

AURKC = AURKC (Homo sapiens, UniProt Q9UQB9)
How it was run: as §1

CAMK1 = CAMK1 (Homo sapiens, UniProt Q14012)
How it was run: as §1

LIMK1 = LIMK1 (Homo sapiens, UniProt P53667)
How it was run: as §1

remaining binding at 100 µM (FES): 76%
remaining binding at 100 µM (LRRK2): 77%
remaining binding at 100 µM (AKT2): 64%
remaining binding at 100 µM (MYLK2): 81%
remaining binding at 100 µM (NDR2): 96%
remaining binding at 100 µM (CAMK2D): 87%
remaining binding at 100 µM (SNARK): 100%
remaining binding at 100 µM (WEE1): 100%
remaining binding at 100 µM (TYRO3): 94%
remaining binding at 100 µM (RET): 88%
remaining binding at 100 µM (PYK2): 93%
remaining binding at 100 µM (MAP3K2): 86%
remaining binding at 100 µM [1]: 100%
remaining binding at 100 µM (PRKR): 96%
remaining binding at 100 µM (HASPIN): 69%
remaining binding at 100 µM (IKK-beta): 74%
remaining binding at 100 µM (CDC2L1): 100%
remaining binding at 100 µM (AURKC): 100%
remaining binding at 100 µM (CAMK1): 77%
remaining binding at 100 µM (LIMK1): 73%
SMILES: C[C@@H]1CC(=O)NN=C1c1ccc(NN=C(C#N)C#N)cc1 [levosimendan]
